We go through 30 compounds from patent US11702419B2, “Heterocyclic compound and use thereof” (Takeda Pharmaceutical Company Limited, priority 2018, dated 2023).

T1 sequence (Q13224 27-1484, other chains not shown): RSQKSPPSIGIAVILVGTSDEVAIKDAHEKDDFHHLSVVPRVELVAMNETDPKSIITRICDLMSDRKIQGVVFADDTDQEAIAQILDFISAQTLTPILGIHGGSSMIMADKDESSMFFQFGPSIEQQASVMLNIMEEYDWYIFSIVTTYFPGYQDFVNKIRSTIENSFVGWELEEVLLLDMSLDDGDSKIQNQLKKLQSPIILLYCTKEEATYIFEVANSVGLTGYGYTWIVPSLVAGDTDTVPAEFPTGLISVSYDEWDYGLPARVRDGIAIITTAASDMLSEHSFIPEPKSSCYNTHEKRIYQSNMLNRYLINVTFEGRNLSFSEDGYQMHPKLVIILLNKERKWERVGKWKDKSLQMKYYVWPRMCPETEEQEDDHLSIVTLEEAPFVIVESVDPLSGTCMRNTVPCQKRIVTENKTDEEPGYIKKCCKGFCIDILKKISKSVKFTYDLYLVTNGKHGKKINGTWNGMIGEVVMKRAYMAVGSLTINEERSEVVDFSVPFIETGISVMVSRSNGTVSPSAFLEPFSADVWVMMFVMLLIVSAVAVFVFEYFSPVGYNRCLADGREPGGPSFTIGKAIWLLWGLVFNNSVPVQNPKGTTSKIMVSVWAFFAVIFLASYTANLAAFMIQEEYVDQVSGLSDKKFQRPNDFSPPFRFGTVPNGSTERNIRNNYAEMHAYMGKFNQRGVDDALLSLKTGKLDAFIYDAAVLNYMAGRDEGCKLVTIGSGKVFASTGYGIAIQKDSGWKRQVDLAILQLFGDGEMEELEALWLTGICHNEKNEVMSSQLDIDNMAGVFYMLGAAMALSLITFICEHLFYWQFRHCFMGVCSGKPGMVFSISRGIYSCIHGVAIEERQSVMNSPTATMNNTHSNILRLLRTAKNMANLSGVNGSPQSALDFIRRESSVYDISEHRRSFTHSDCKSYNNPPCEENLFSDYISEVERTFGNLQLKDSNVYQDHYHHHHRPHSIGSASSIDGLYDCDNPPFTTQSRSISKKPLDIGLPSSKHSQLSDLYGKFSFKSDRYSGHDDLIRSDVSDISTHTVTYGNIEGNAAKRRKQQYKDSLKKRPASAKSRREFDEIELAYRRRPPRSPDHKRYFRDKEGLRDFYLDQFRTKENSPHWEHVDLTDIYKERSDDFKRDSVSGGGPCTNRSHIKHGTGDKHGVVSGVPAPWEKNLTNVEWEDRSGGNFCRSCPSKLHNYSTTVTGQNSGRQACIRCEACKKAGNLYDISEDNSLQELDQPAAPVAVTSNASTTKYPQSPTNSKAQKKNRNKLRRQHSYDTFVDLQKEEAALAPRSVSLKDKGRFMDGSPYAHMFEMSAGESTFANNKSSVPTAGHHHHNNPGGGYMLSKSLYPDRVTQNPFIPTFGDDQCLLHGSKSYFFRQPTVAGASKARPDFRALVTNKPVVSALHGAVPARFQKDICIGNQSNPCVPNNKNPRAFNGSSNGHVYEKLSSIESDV

The assay addresses T1, NMDA receptor composed of four subunits consisting of two sets of heterodimers of NR1 and NR2B (human GRIN1 and GRIN2B-expressing HEK293 cells) (Homo sapiens, UniProt Q13224).
T1 construct: host or cells: HEK293 (tetracycline-inducible expression)
The experiment in a line: NR2B Ca2+ influx assay. Type of assay: cell-based. To be noted: 10 μM compound, glutamic acid/glycine-induced Ca2+ influx, FLIPR, read-out: inhibitory rate (10 μM compound concentration). As to the method:
In order to confirm an “antagonistic action on an NMDA receptor containing the NR2B subunit” which the compound of the present invention has, inhibitory effect on the NMDA receptor activation was evaluated using “NMDA receptor composed of four subunits consisting of two sets of heterodimers of NR1 and NR2B”-expressing human fetal renal cells, specifically human glutamate ionotropic receptor NMDA type subunit 1 (GRIN1) and human glutamate ionotropic receptor NMDA type subunit 2B (GRIN2B)-expressing HEK293 cells.
As an index of the NMDA receptor activation, intracellular calcium ion (Ca^2+) influx caused by bonding of glycine and glutamate to NR1 and NR2B respectively was used. HEK293 cells were purchased from ChanTest. The cells were cultured in a DMEM/F-12 (COSMO BIO, 10-092-CM) medium containing 10% FBS (fetal bovine serum, AusGene), 100 units/mL penicillin, 100 μg/mL streptomycin, 500 μg/mL neomycin, 100 μg/mL Zeocin and 5 μg/mL Blasticidin at 37° C., 5% CO2. The cells were detached from flask with trypsin the day before the assay, suspended in a seeding medium (DMEM (Invitrogen, 31053) containing 10% FBS, 100 units/mL penicillin and 100 μg/mL streptomycin) at 8×10^5 cells/mL, seeded by 25 μL per well in a 384-well plate (Falcon, 356663) at 20000 cells/well, and cultured overnight in an incubator. On the day of the assay, tetracycline (Wako Pure Chemical Industries, 209-16561) was diluted with the seeding medium at 2 μg/mL, and the dilution was added at 25 μL/well to the plate seeded with the cells, and the cells were cultured for 2 hr in an incubator. Thereafter, the medium was removed, and the cells were washed with 50 μL/well of assay buffer (137 mM NaCl, 4 mM KCl, 1.8 mM CaCl2, 10 mM HEPES (pH 7.2), 10 mM Glucose, and 0.1% BSA). Then, a loading buffer (assay buffer containing 2.5 μM Fluo-4AM, 2 mM Amaranth and 1 mM Tartrazine) was added thereto at 25 μL/well, and loading was performed in the incubator for 30 min, and then at room temperature for 15 min. The test compound was diluted with the above-mentioned assay buffer so as to adjust the concentration to 30 μM, the obtained solution (25 μL) was added thereto (the final concentration 10 μM), and the cells were stood for 15 min at room temperature. Using FLIPR (Molecular Devices), 25 μL of an assay buffer containing 30 μM glutamic acid and 30 μM glycine was added thereto, and the fluorescence signal was measured every 3 seconds for 5 min. The relative activity value (inhibitory rate) was calculated when the cumulative total value of the fluorescence value of a well added with a buffer free of glutamic acid and glycine, relative to the cumulative total value of the fluorescence value of each well are regarded as 100% inhibition. The obtained value was evaluated as an inhibitory activity.
For the compound `O=C(NCc1cnn2ccn(CC(F)(F)F)c12)c1cnc(OC(F)F)c(F)c1` [Example 82, 6-(difluoromethoxy)-5-fluoro-N-{[1-(2,2,2-trifluoroethyl)-1H-imidazo[1,2-b]pyrazol-7-yl]methyl}pyridine-3-carboxamide], the inhibition at 10 µM is 72%.

In the case of `CCOc1nn2ncccc2c1CNC(=O)c1cnc(OC(F)F)c(F)c1` [Example 24, 6-(difluoromethoxy)-N-((2-ethoxypyrazolo[1,5-b]pyridazin-3-yl)methyl)-5-fluoronicotinamide], the inhibition at 10 µM is 70%.

Regarding `Cn1ccn2ncc(CNC(=O)c3ccc(OC(F)(F)F)cc3)c12` [Example 66, N-((1-methyl-1H-imidazo[1,2-b]pyrazol-7-yl)methyl)-4-(trifluoromethoxy)benzamide], the inhibition at 10 µM amounted to 98%.

Consider `Cc1cn2ncc(CNC(=O)c3cnc(OC(F)F)c(F)c3)c2n1C` [Example 85, 6-(difluoromethoxy)-N-[(1,2-dimethyl-1H-imidazo[1,2-b]pyrazol-7-yl)methyl]-5-fluoropyridine-3-carboxamide], for which the inhibition at 10 µM came out at 97%.

On to `O=C(NCc1cnn2ncccc12)c1ccc(OC(F)(F)F)c(F)c1` [Example 5, 3-fluoro-N-(pyrazolo[1,5-b]pyridazin-3-ylmethyl)-4-(trifluoromethoxy)benzamide], for which the inhibition at 10 µM is 99%.

On to `O=C(NCc1nnn2ccccc12)c1ccc(OC(F)(F)F)cc1` [Example 69, N-([1,2,3]triazolo[1,5-a]pyridin-3-ylmethyl)-4-(trifluoromethoxy)benzamide], for which the inhibition at 10 µM turned out to be 92%.

On to `Cc1ccnn2nnc(CNC(=O)c3cnc(OC(F)F)c(Cl)c3)c12` [Example 54, 5-chloro-6-(difluoromethoxy)-N-((4-methyl[1,2,3]triazolo[1,5-b]pyridazin-3-yl)methyl)nicotinamide], for which the inhibition at 10 µM was 79%.

`CCn1ccn2ncc(CNC(=O)c3cnc(OC(F)F)c(F)c3)c12` [Example 83, 6-(difluoromethoxy)-N-[(1-ethyl-1H-imidazo[1,2-b]pyrazol-7-yl)methyl]-5-fluoropyridine-3-carboxamide]: the inhibition at 10 µM is 94%.

For the compound `O=C(NCc1nnn2ncccc12)c1cnc(OC(F)F)c(F)c1` [Example 23, 6-(difluoromethoxy)-5-fluoro-N-([1,2,3]triazolo[1,5-b]pyridazin-3-ylmethyl)nicotinamide], the inhibition at 10 µM was determined as 95%.

As to `Cn1ccn2ncc(CNC(=O)c3ccc(C(F)(F)F)s3)c12` [Example 65, N-((1-methyl-1H-imidazo[1,2-b]pyrazol-7-yl)methyl)-5 (trifluoromethyl)thiophene-2-carboxamide], the inhibition at 10 µM amounted to 96%.

Take `O=C(NCc1cnn2ncccc12)c1cnc(OC(F)F)c(Cl)c1` [Example 8, 5-chloro-6-(difluoromethoxy)-N-(pyrazolo[1,5-b]pyridazin-3-ylmethyl)nicotinamide]: the inhibition at 10 µM was 97%.

In the case of `Cc1nn2ncc(CNC(=O)c3ccc(OC(F)(F)F)c(F)c3)c2n1CC(F)F` [Example 78, N-{[1-(2,2-difluoroethyl)-2-methyl-1H-pyrazolo[1,5-b][1,2,4]triazol-7-yl]methyl}-3-fluoro-4-(trifluoromethoxy)benzamide], the inhibition at 10 µM came to 81%.

For `Cc1nn2ncccc2c1CNC(=O)c1cnc(OC(F)F)c(Cl)c1` [Example 46, 5-chloro-6-(difluoromethoxy)-N-((2-methylpyrazolo[1,5-b]pyridazin-3-yl)methyl)nicotinamide], the inhibition at 10 µM came out at 96%.

For `Cc1nn2ncc(CNC(=O)c3cnc(OC(F)F)c(Cl)c3)c2n1CC(F)F` [Example 77, 5-chloro-N-{[1-(2,2-difluoroethyl)-2-methyl-1H-pyrazolo[1,5-b][1,2,4]triazol-7-yl]methyl}-6-(difluoromethoxy)pyridine-3-carboxamide], the inhibition at 10 µM was found to be 54%.

On to `COc1c(F)cc(C(=O)NCc2nnn3ccccc23)cc1F` [Example 41, 3,5-difluoro-4-methoxy-N-([1,2,3]triazolo[1,5-a]pyridin-3-ylmethyl)benzamide], for which the inhibition at 10 µM amounted to 86%.

Take `O=C(NCc1nnn2ncccc12)c1cnc(OC(F)F)c(Cl)c1` [Example 22, 5-chloro-6-(difluoromethoxy)-N-([1,2,3]triazolo[1,5-b]pyridazin-3-ylmethyl)nicotinamide]: the inhibition at 10 µM stood at 98%.

Consider `Cc1nn2ncc(CNC(=O)c3cnc(OC(F)F)c(Cl)c3)c2n1C(F)F` [Example 75, 5-chloro-6-(difluoromethoxy)-N-{[1-(difluoromethyl)-2-methyl-1H-pyrazolo[1,5-b][1,2,4]triazol-7-yl]methyl}pyridine-3-carboxamide], for which the inhibition at 10 µM turned out to be 91%.

For the compound `Cc1cccn2nnc(CNC(=O)c3ccc(OC(F)(F)F)cc3)c12` [Example 2, N-((4-methyl[1,2,3]triazolo[1,5-a]pyridin-3-yl)methyl)-4-(trifluoromethoxy)benzamide], the inhibition at 10 µM is 54%.

For the compound `COc1ncc(C(=O)NCc2cnn3ncccc23)cc1Cl` [Example 9, 5-chloro-6-methoxy-N-(pyrazolo[1,5-b]pyridazin-3-ylmethyl)nicotinamide], the inhibition at 10 µM turned out to be 87%.

As to `CCOc1nn2ncccc2c1CNC(=O)c1ccc(OC(F)F)c(F)c1` [Example 25, 4-(difluoromethoxy)-N-((2-ethoxypyrazolo[1,5-b]pyridazin-3-yl)methyl)-3-fluorobenzamide], the inhibition at 10 µM was found to be 78%.

As to `Cc1nn2ncccc2c1CNC(=O)c1ccc(OC(F)(F)F)c(F)c1` [Example 10, 3-fluoro-N-((2-methylpyrazolo[1,5-b]pyridazin-3-yl)methyl)-4-(trifluoromethoxy)benzamide], the inhibition at 10 µM stood at 97%.

Take `Cc1cnn2nnc(CNC(=O)c3cnc(OC(F)F)c(Cl)c3)c2c1` [Example 51, 5-chloro-6-(difluoromethoxy)-N-((5-methyl[1,2,3]triazolo[1,5-b]pyridazin-3-yl)methyl)nicotinamide]: the inhibition at 10 µM is 97%.

Turning to `Cc1nn2ncc(CNC(=O)c3cnc(OC(F)F)c(F)c3)c2n1C(F)F` [Example 74, 6-(difluoromethoxy)-N-{[1-(difluoromethyl)-2-methyl-1H-pyrazolo[1,5-b][1,2,4]triazol-7-yl]methyl}-5-fluoropyridine-3-carboxamide], the inhibition at 10 µM stood at 90%.

`COc1ncc(C(=O)NCc2cnn3ccn(C)c23)cc1F` [Example 61, 5-fluoro-6-methoxy-N-((1-methyl-1H-imidazo[1,2-b]pyrazol-7-yl)methyl)nicotinamide]: the inhibition at 10 µM worked out at 88%.

As for `O=C(NCc1cnn2nccnc12)c1ccc(OC(F)(F)F)c(F)c1` [Example 47, 3-fluoro-N-(pyrazolo[1,5-b][1,2,4]triazin-8-ylmethyl)-4-(trifluoromethoxy)benzamide], the inhibition at 10 µM was 93%.

On to `Cc1ccnn2nnc(CNC(=O)c3cnc(OC(F)F)c(F)c3)c12` [Example 53, 6-(difluoromethoxy)-5-fluoro-N-((4-methyl[1,2,3]triazolo[1,5-b]pyridazin-3-yl)methyl)nicotinamide], for which the inhibition at 10 µM amounted to 84%.

In the case of `Cc1nn2ncc(CNC(=O)c3cnc(OC(F)F)c(F)c3)c2n1C` [Example 70, 6-(difluoromethoxy)-N-[(1,2-dimethyl-1H-pyrazolo[1,5-b][1,2,4]triazol-7-yl)methyl]-5-fluoropyridine-3-carboxamide], the inhibition at 10 µM was 100%.

As to `CCn1ccn2ncc(CNC(=O)c3cnc(OC(F)F)c(Cl)c3)c12` [Example 84, 5-chloro-6-(difluoromethoxy)-N-[(1-ethyl-1H-imidazo[1,2-b]pyrazol-7-yl)methyl]pyridine-3-carboxamide], the inhibition at 10 µM worked out at 95%.

As to `O=C(NCc1cnn2ccn(C(F)F)c12)c1cnc(OC(F)F)c(F)c1` [Example 76, 6-(difluoromethoxy)-N-{[1-(difluoromethyl)-1H-imidazo[1,2-b]pyrazol-7-yl]methyl}-5-fluoropyridine-3-carboxamide], the inhibition at 10 µM came out at 87%.

As to `Cc1ccnn2ncc(CNC(=O)c3ccc(OC(F)F)c(F)c3)c12` [Example 36, 4-(difluoromethoxy)-3-fluoro-N-((4-methylpyrazolo[1,5-b]pyridazin-3-yl)methyl)benzamide], the inhibition at 10 µM worked out at 97%.
